EC50 data for 19 compounds are collected here from patent US20240294508A1, “RIP1 MODULATORS INCLUDING AZETIDINE CYCLIC UREAS, PREPARATIONS, AND USES THEREOF” (SIRONAX LTD., priority 2021, published 2024).

The test system of the assay is HT-29 cells. The assay is described as follows: HT29 cells 0FBS assay in vitro: TNF-α/SMAC mimetic/zVAD-FMK induced necroptosis, CellTiter-Glo cell viability (RIP1 inhibitory activity). Particulars: Homo sapiens, FBS free medium, TNF-α (10 ng/ml) + SMAC mimetic (6 uM) + zVAD-FMK (10 μM), 20 hours, geometric mean EC50. The format is cell-based. The text has this: Protocol for HT29 Cells 0FBS Assay In Vitro
• Cell line: HT-29 (ATCC® HTB-38™) • Culture medium: McCOY's 5A, Gibco, Cat No. 16600-082 • FBS, Gibco, Cat No. 10099-141C • Trypsin: Gibco, Cat No. 25200-056 • DMSO: Sigma, Cat No. 67-68-5, 1L • Assay plate: Corning #3903 • Compound dilution plate: Corning #3357 • Inducers: TNFα, GenScript, Cat No. Z01001-50, • SmacM, Cat. No., HY-15989, MedChemExpress (MCE) • Z_VAD FMK, TargetMol, T6013 • Cell Titer-Glo® Luminescent Cell Viability Assay Kit: Promega, Cat No. G7573 • EnVision: PerkinElmer, 2105-0010
2. Cell Seeding of HT-29 Cells
1) HT-29 cells were checked every day to make sure they are healthy and growing as expected. They were split sub-culturing when were approximately 80% confluent.
2) First pre-warm the culture medium of McCOY's 5A medium (Gibco, Cat No. 16600-082) with 10% FBS (Gibco, Cat No. 10099-141C) in 37° C. water bath for at least 30 min.
3) Growing cells to desired level of confluency 80% in a T75 flask, aspirate the medium, and wash with warm PBS two times.
4) Add 2-3 ml fresh warm trypsin (Gibco, Cat No. 25200-056) solution. Transfer the flask to a 37° C. incubator.
5) After 5 minutes, tap the side of the flask, and examine the flask under a microscope for lifting. If necessary, return the cells to the incubator for an additional 5-10 minutes, with occasional tapping, until lifting is complete.
6) Quickly neutralize the trypsin reaction by adding 6-9 ml cell culture medium, then transfer the cells to sterile 15 ml conical tubes. Pellet the cells by centrifugation at 300×g for 7 minutes, then decant the supernatant.
7) Resuspend the cells in fresh cell culture medium. Do cell counting with hemocytometer.
8) Seed 100 μl of 5,000 cells into each well of the sterile 96-well cell culture plate (Corning 3903) and culture overnight at 37° C. with 5% CO2.
3. Compounds Titration and Treatment of HT-29 Cells
1) All batches of compounds (CPDs0 (e.g., compound 1-169) were dissolved in DMSO (Dimethyl sulfoxide) as 20 mM stock solution.
2) Take 3 ul 20 mM stock solution of CPDs to […] DMSO and mix well, continue the titration ratio of 1:3 (20 ul CPDs+40 ul DMSO), e.g., to give solutions of CPDS at 6.6 mM, 2.2 mM, etc., till the 10 points end.
3) Take out assay plates with HT-29 cells from incubator, remove all culture medium then wash 1 time with 1×PBS, and change fresh McCOY's 5A medium of FBS free with a cocktail of TNF-α (10 ng/ml), the SMAC mimetic (6 uM) and zVAD-FMK (10 μM) to stimulate the HT-29 cells to increase pRIPK1 levels and necroptosis.
4) Add 0.5 μL of the diluted compound to the corresponding 96-well assay plates.
5) Incubate the assay plates for 20 hours at 37° C. with 5% CO2.
4. Performing Cell Viability Detection of HT-29 Cells after Treated with Compounds
1) The CellTiter-Glo® Luminescent Cell Viability Assay was employed to detect the ATP levels of viable HT-29 cells.
2) Equilibrate the CellTiter-Glo® buffer and the lyophilized substrate to room temperature prior to use.
3) Resuspend the CellTiter-Glo® substrate with CellTiter-Glo® buffer, mix by gently vortexing to obtain a homogeneous solution.
4) Pipette 20 μl the enzyme/substrate mixture by multi-channel pipette into the 96-well assay plates from step 5) under the Compounds titration and treatment stage.
5) Place the plates on an orbital shaker and mix the contents for 3 minutes to induce cell lysis.
6) Then allow the plates to incubate at room temperature for 10 minutes to stabilize luminescent signal.
7) Read and record luminescence signal with EnVision.
8) The geometric mean EC50 of the compounds were calculated from 10 points response dose with duplicate. In Table 2, activity is provided as follows: +++=0.1 nM≤EC50<100 nM; ++=100 nM≤EC5 1000 nM; […].
In general terms: In ATP-based viability assays light output follows the ATP content of the culture.
Regarding `Cc1nscc1-c1cc(OC2CN(C(=O)N3N=CC[C@H]3c3cc(F)cc(C#N)c3)C2)c(F)cn1` [Compound 17, (S)-3-fluoro-5-(1-(3-((5-fluoro-2-(3-methylisothiazol-4-yl)pyridin-4-yl)oxy)azetidine-1-carbonyl)-4,5-dihydro-1H-pyrazol-5-yl)benzonitrile], the EC50 (as a rule, the midpoint of the concentration-response curve) lay in the range of 0.1 to 100 nM. As for `Cc1nc(C(N)=O)c(C)n1-c1cc(OC2CN(C(=O)N3N=CC[C@H]3c3cncc(F)c3)C2)c(F)cn1` [Compound 69, (S)-1-(5-fluoro-4-((1-(5-(5-fluoropyridin-3-yl)-4,5-dihydro-1H-pyrazole-1-carbonyl)azetidin-3-yl)oxy)pyridin-2-yl)-2,5-dimethyl-1H-imidazole-4-carboxamide], the figure is 100 to 1000 nM; as for `Cc1nn(-c2cc(OC3CN(C(=O)N4N=CC[C@H]4c4cc(F)cc(Cl)c4)C3)c(F)cn2)c(C)c1C(=O)O` [Compound 140, (S)-1-(4-((1-(5-(3-chloro-5-fluorophenyl)-4,5-dihydro-1H-pyrazole-1-carbonyl)azetidin-3-yl)oxy)-5-fluoropyridin-2-yl)-3,5-dimethyl-1H-pyrazole-4-carboxylic acid], 0.1 to 100 nM. As for `Cn1cc(-c2cc(OC3CN(C(=O)N4N=CC[C@H]4c4cc(F)cc(C#N)c4)C3)c(F)cn2)nn1` [Compound 14, (S)-3-fluoro-5-(1-(3-((5-fluoro-2-(1-methyl-1H-1,2,3-triazol-4-yl)pyridin-4-yl)oxy)azetidine-1-carbonyl)-4,5-dihydro-1H-pyrazol-5-yl)benzonitrile], the figure is 100 to 1000 nM; as for `COc1ncccc1-c1cc(OC2CN(C(=O)N3N=CC[C@H]3c3cc(F)cc(F)c3)C2)c(F)cn1` [Compound 164, (S)-(5-(3,5-difluorophenyl)-4,5-dihydro-1H-pyrazol-1-yl)(3-((5-fluoro-2′-methoxy-[2,3′-bipyridin]-4-yl)oxy)azetidin-1-yl)methanone], 0.1 to 100 nM. As for `Cc1cnn(C)c1-c1cnc(OC2CN(C(=O)N3N=CC[C@H]3c3cc(F)cc(F)c3)C2)s1` [Compound 154, (S)-(5-(3,5-difluorophenyl)-4,5-dihydro-1H-pyrazol-1-yl)(3-((5-(1,4-dimethyl-1H-pyrazol-5-yl)thiazol-2-yl)oxy)azetidin-1-yl)methanone], the figure is 0.1 to 100 nM; as for `Cc1cnn(C)c1-c1ncc(F)c(OC2CN(C(=O)N3N=CC[C@H]3c3cncc(F)c3)C2)n1` [Compound 24, (S)-(3-((2-(1,4-dimethyl-1H-pyrazol-5-yl)-5-fluoropyrimidin-4-yl)oxy)azetidin-1-yl)(5-(5-fluoropyridin-3-yl)-4,5-dihydro-1H-pyrazol-1-yl)methanone], 0.1 to 100 nM. Turning to `Cc1ccc(C)n1-c1cc(OC2CN(C(=O)N3N=CC[C@H]3c3cc(F)cc(C#N)c3)C2)c(F)cn1` [Compound 39, (S)-3-(1-(3-((2-(2,5-dimethyl-1H-pyrrol-1-yl)-5-fluoropyridin-4-yl)oxy)azetidine-1-carbonyl)-4,5-dihydro-1H-pyrazol-5-yl)-5-fluorobenzonitrile], the EC50 fell in the range of 0.1 to 100 nM. As for `Cc1noc(C)c1-c1cc(OC2CN(C(=O)N3N=CC[C@H]3c3cc(F)cc(C#N)c3)C2)c(F)cn1` [Compound 89, (S)-3-(1-(3-((2-(3,5-dimethylisoxazol-4-yl)-5-fluoropyridin-4-yl)oxy)azetidine-1-carbonyl)-4,5-dihydro-1H-pyrazol-5-yl)-5-fluorobenzonitrile], the figure is 0.1 to 100 nM; as for `Cc1nn(CC2CC2)c(C)c1-c1cc(OC2CN(C(=O)N3N=CC[C@H]3c3cc(F)cc(C#N)c3)C2)c(F)cn1` [Compound 57, (S)-3-(1-(3-((2-(1-(cyclopropylmethyl)-3,5-dimethyl-1H-pyrazol-4-yl)-5-fluoropyridin-4-yl)oxy)azetidine-1-carbonyl)-4,5-dihydro-1H-pyrazol-5-yl)-5-fluorobenzonitrile], 0.1 to 100 nM.

`Cc1cnc(C2CC=NN2C(=O)N2CC(Oc3nc(-c4c(C)cnn4C)c(F)cc3F)C2)s1` (stereo not shown) [Compound 129, (3-((6-(1,4-dimethyl-1H-pyrazol-5-yl)-3,5-difluoropyridin-2-yl)oxy)azetidin-1-yl)(5-(5-methylthiazol-2-yl)-4,5-dihydro-1H-pyrazol-1-yl)methanone]: the EC50 was in the range of 0.1 to 100 nM. As for `Cc1nn(-c2cc(OC3CN(C(=O)N4N=CC[C@H]4c4ccccc4)C3)c(F)cn2)c(C)c1C(=O)NC1COC1` [Compound 76, (S)-1-(5-fluoro-4-((1-(5-phenyl-4,5-dihydro-1H-pyrazole-1-carbonyl)azetidin-3-yl)oxy)pyridin-2-yl)-3,5-dimethyl-N-(oxetan-3-yl)-1H-pyrazole-4-carboxamide], the figure is 0.1 to 100 nM. Regarding `Cc1csc(C2CC=NN2C(=O)N2CC(Oc3cc(-c4c(C)cnn4C)ncc3F)C2)n1` (stereo not shown) [Compound 97, (3-((2-(1,4-dimethyl-1H-pyrazol-5-yl)-5-fluoropyridin-4-yl)oxy)azetidin-1-yl)(5-(4-methylthiazol-2-yl)-4,5-dihydro-1H-pyrazol-1-yl)methanone], the 50% effective concentration (EC50) fell in the range of 100 to 1000 nM. As for `CCn1nccc1-c1cc(OC2CN(C(=O)N3N=CC[C@H]3c3cncc(F)c3)C2)c(F)cn1` [Compound 28, (S)-(3-((2-(1-ethyl-1H-pyrazol-5-yl)-5-fluoropyridin-4-yl)oxy)azetidin-1-yl)(5-(5-fluoropyridin-3-yl)-4,5-dihydro-1H-pyrazol-1-yl)methanone], the figure is 0.1 to 100 nM; as for `CCNC(=O)c1c(C)nn(-c2cc(OC3CN(C(=O)N4N=CC[C@H]4c4cc(F)cc(C#N)c4)C3)c(F)cn2)c1C` [Compound 87, (S)-1-(4-((1-(5-(3-cyano-5-fluorophenyl)-4,5-dihydro-1H-pyrazole-1-carbonyl)azetidin-3-yl)oxy)-5-fluoropyridin-2-yl)-N-ethyl-3,5-dimethyl-1H-pyrazole-4-carboxamide], 0.1 to 100 nM. As for `CNC(=O)c1c(C)nn(-c2cc(OC3CN(C(=O)N4N=CC[C@H]4c4cccc(F)c4)C3)c(F)cn2)c1C` [Compound 79, (S)-1-(5-fluoro-4-((1-(5-(3-fluorophenyl)-4,5-dihydro-1H-pyrazole-1-carbonyl)azetidin-3-yl)oxy)pyridin-2-yl)-N,3,5-trimethyl-1H-pyrazole-4-carboxamide], the figure is 0.1 to 100 nM; as for `Cc1cnn(C)c1-c1cc(OC2CN(C(=O)N3N=CCC3c3ncccc3Cl)C2)c(F)cn1` (stereo not shown) [Compound 93, (5-(3-chloropyridin-2-yl)-4,5-dihydro-1H-pyrazol-1-yl)(3-((2-(1,4-dimethyl-1H-pyrazol-5-yl)-5-fluoropyridin-4-yl)oxy)azetidin-1-yl)methanone], 0.1 to 100 nM; as for `Cc1nc(C2CC=NN2C(=O)N2CC(Oc3cc(-c4c(C)cnn4C)ncc3F)C2)c(C)s1` (stereo not shown) [Compound 128, (3-((2-(1,4-dimethyl-1H-pyrazol-5-yl)-5-fluoropyridin-4-yl)oxy)azetidin-1-yl)(5-(2,5-dimethylthiazol-4-yl)-4,5-dihydro-1H-pyrazol-1-yl)methanone], 100 to 1000 nM. As for `Cn1ccnc1-c1ccc(F)c(OC2CN(C(=O)N3N=CC[C@H]3c3cc(F)cc(C#N)c3)C2)n1` [Compound 13, (S)-3-fluoro-5-(1-(3-((3-fluoro-6-(1-methyl-1H-imidazol-2-yl)pyridin-2-yl)oxy)azetidine-1-carbonyl)-4,5-dihydro-1H-pyrazol-5-yl)benzonitrile], the figure is 0.1 to 100 nM.
